This is an account of results in US20180344702A1, “METHODS FOR TREATING PATIENTS WITH HEMATOLOGIC MALIGNANCIES” (Aptose Biosciences, Inc., priority 2017, published 2018).

The test system of assay [1] is Ba/F3-ITD + 691 (ITD + F691L). As to the kind of experiment: Antiproliferative activity (Table 6). It counts as cell-based, Murin. The settings on record: 72 h.
Assay [2] deals with BTK pathway in EOL-1 cells. The assay is described as follows: Western blot analysis in EOL-1 cells. The assay is classed as cell-based. The settings on record: 0.5, 5.0, and 50 nM, FIG. 3. On the procedure:
Immunoblot assays: Cells were treated with Compound 7 at various concentrations and collected for cell lysates. The total and phosphorylated levels of the indicated proteins were determined by Western Blot.
(A western blot detects proteins with antibodies after separation by electrophoresis.)

Assay [3] relates to Ramos. The assay is described as follows: Apoptosis in B-cell malignancies (annexin V/PI, cleaved PARP). It counts as cell-based. The settings on record: increasing concentrations. How it is done:
Mechanistic studies were undertaken to determine the mechanism of action for Compound 7. The apoptotic state of treated cells was determined by staining with annexin V and propidium iodide (PI), then analysis with the BD Accuri C6 flow cytometer, whereby live cells are annexin V/PI negative, early apoptotic cells are annexin V positive and late apoptotic cells are annexin V and PI positive. In addition production of cleaved PARP, a classic apoptotic marker, was assayed by western blotting with specific antibodies.

The test system of assay [4] is Mino, RAMOS, GRANTA-519 and SU-DHL-6 cells. As to the kind of experiment: Cell cycle progression in B-cell malignant cell lines (EdU/PI, FACS). The assay is classed as cell-based. Conditions: FIGS. 27, 28. On the procedure:
The data presented in FIGS. 27A-27D and FIGS. 28A-28D were generated using well-known protocols for measuring cell cycle progression (e.g., EdU and/or PI staining followed by FACS analysis using the BD Accuri C6 flow), and is readily apparent to a skilled artisan.
Cell-cycle analysis: Cells were treated with vehicle, DMSO or Compound 7 and were stained with PI and EdU, and then analyzed by flow cytometry to determine the phases of cell cycle.

The subject of assay [5] is Ba/F3-ITD + D835H (FLT3-ITD + D835H). The assay is described as follows: Antiproliferative activity (Table 6). Conditions: 72 h. The assay is classed as cell-based, Murin.
The target in assay [6] is T1, BTK (E41K) (Homo sapiens, UniProt Q06187, E41K).
T1 construct: RBC (only as the name of the general kinase protocol)
T1 sequence (Q06187 whole entry E41K): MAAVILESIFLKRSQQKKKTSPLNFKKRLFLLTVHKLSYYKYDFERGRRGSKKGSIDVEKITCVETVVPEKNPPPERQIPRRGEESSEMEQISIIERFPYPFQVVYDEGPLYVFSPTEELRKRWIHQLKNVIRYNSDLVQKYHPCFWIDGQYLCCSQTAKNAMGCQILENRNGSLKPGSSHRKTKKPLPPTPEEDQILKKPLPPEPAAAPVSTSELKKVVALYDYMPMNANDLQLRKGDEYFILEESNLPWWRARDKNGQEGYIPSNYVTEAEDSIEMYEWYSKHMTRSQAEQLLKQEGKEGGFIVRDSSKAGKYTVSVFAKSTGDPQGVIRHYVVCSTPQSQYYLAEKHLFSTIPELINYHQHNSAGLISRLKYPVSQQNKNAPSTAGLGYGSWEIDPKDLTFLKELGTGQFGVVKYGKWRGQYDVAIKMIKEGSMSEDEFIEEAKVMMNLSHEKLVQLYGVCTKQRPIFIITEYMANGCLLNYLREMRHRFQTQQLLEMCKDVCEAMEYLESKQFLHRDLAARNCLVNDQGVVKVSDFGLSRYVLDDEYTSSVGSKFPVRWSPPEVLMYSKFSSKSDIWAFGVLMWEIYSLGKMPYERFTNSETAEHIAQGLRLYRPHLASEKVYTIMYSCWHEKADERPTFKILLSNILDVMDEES
The assay is described as follows: Inhibition of BTK, kinase IC50. It counts as biochemical. On the procedure:
(§1) RBC HotSpot Kinase Assay Protocol:
(§2) Reagents used: Base Reaction buffer; 20 mM Hepes (pH 7.5), 10 mM MgCl2, 1 mM EGTA, 0.02% Brij35, 0.02 mg/ml BSA, 0.1 mM Na3VO4, 2 mM DTT, 1% DMSO. Required cofactors are added individually to each kinase reaction.
(§3) Compound 7 was dissolved in 100% DMSO to a specified concentration. The serial dilution was conducted by epMotion 5070 in DMSO. The substrate was freshly prepared in Reaction Buffer and any required cofactors to the substrate solution were added. The kinase was added to the solution and gently mixed. Compound 7 was added in 100% DMSO into the kinase reaction mixture by Acoustic technology (Echo550; nanoliter range), and incubated for 20 min at room temperature. ^33P-ATP (Specific activity 10 μCi/μl) was added into the reaction mixture to initiate the reaction, which was incubated for 2 hours, whereupon kinase activity was detected by the filter-binding method.

Assay [7] addresses T2, BTK (P190K) (Homo sapiens, UniProt Q06187, P190K).
T2 construct: RBC (only as the name of the general kinase protocol)
As to the kind of experiment: Inhibition of BTK, kinase IC50. The assay is classed as biochemical. How it is done: as §1, §2, §3

Assay [8] has as its target T3, BTK (Homo sapiens, UniProt Q06187).
T3 construct: RBC (only as the name of the general kinase protocol)
As to the kind of experiment: Inhibition of BTK, kinase IC50. The assay is classed as biochemical. On the procedure:
as §1, §2, §3

Assay [9] has as its system KG-1. The assay is described as follows: Cytotoxicity, MTS cell viability. It counts as cell-based. Conditions: Homo sapiens, AML, 72 hour MTS. How it is done:
(§4) Cytotoxicity procedure: Cells were seeded in 96-well plate and treated with vehicle DMSO or Compound 7 at a specified concentration and incubated for 72 hours.

Assay [10] deals with THP-1. The assay is described as follows: Cytotoxicity, MTS cell viability. The assay is classed as cell-based. The settings on record: Homo sapiens, AML, 72 hour MTS. How it is done:
as §4

The subject of assay [11] is NOM0-1. As to the kind of experiment: Cytotoxicity, MTS cell viability. The assay is classed as cell-based. The settings on record: AML, 72 hour MTS. On the procedure: as §4
For assay [12], the system named is SKM-1. As to the kind of experiment: Cytotoxicity, MTS cell viability. It counts as cell-based. The settings on record: Homo sapiens, AML, 72 hour MTS. How it is done: as §4
The test system of assay [13] is HL60. The assay is described as follows: Cytotoxicity, MTS cell viability. It counts as cell-based. Conditions: Homo sapiens, HL-60, AML, 72 hour MTS. How it is done: as §4
Assay [14] deals with HEL92.1.7. As to the kind of experiment: Cytotoxicity, MTS cell viability. The assay is classed as cell-based. Conditions: Homo sapiens, HEL 92.1.7, AML, 72 hour MTS. On the procedure: as §4
For assay [15], the system named is Molm-13. The assay is described as follows: Cytotoxicity, MTS cell viability. It counts as cell-based. Conditions: Homo sapiens, AML, 72 hour MTS. How it is done:
as §4

In assay [16] the test system is MUTZ-8. The assay is described as follows: Cytotoxicity, MTS cell viability. The assay is classed as cell-based. Conditions: AML, 72 hour MTS. On the procedure:
as §4

In assay [17] the test system is Jurkat. As to the kind of experiment: Cytotoxicity, MTS cell viability. The settings on record: Homo sapiens, ALL, 72 hour MTS. It counts as cell-based. On the procedure:
as §4

Assay [18] has as its system EOL-1. The assay is described as follows: Cytotoxicity, MTS cell viability. The assay is classed as cell-based. The settings on record: Homo sapiens, EOL1, AML, 72 hour MTS. On the procedure: as §4
The subject of assay [19] is MV4-11. The assay is described as follows: Cytotoxicity, MTS cell viability. It counts as cell-based. Conditions: Homo sapiens, AML, 72 hour MTS. How it is done:
as §4

Assay [20] has as its target T4, FLT3(ITD-D835V) (Homo sapiens, UniProt P36888, D835V, form not given).
T4 construct: kinase-tagged T7 phage strains were prepared in an E. coli host derived from the BL21 strain; fused on or other part: T7 phage fusion or DNA tag for qPCR detection
The assay is described as follows: Binding constant (Kd), competition binding with qPCR readout. On the procedure: (§5) Measurements of said kinase activity are referred to as binding constants or Kd values. The protocol for obtaining these values is hereby described. For most assays, kinase-tagged T7 phage strains were prepared in an E. coli host derived from the BL21 strain. E. coli were grown to log-phase and infected with T7 phage and incubated with shaking at 32° C. until lysis. The lysates were centrifuged and filtered to remove cell debris. The remaining kinases were produced in HEK-293 cells and subsequently tagged with DNA for qPCR detection. […] The liganded beads were blocked with excess biotin and washed with blocking buffer (SeaBlock (Pierce), 1% BSA, 0.05% Tween 20, 1 mM DTT) to remove unbound ligand and to reduce nonspecific binding. […] Test compounds were prepared as 111× stocks in 100% DMSO. Kds were determined using an 11-point 3-fold compound dilution series with three DMSO control points. […] The compounds were then diluted directly into the assays such that the final concentration of DMSO was 0.9%. All reactions performed in polypropylene 384-well plate. Each was a final volume of 0.02 ml. […] The kinase concentration in the eluates was measured by qPCR.
For orientation: Quantitative PCR measures a nucleic acid by following its amplification.

The target in assay [21] is T5, FLT3(D835V) (Homo sapiens, UniProt P36888, D835V).
T5 construct: made in house; host or cells: E. coli BL21-derived host (T7 phage) or HEK-293
The assay is described as above. How it is done: as §5

Assay [22] deals with T6, FLT3(R834Q) (Homo sapiens, UniProt P36888, R834Q).
T6 construct: made in house; host or cells: E. coli BL21-derived host (T7 phage) or HEK-293
The description is as above. How it is done: as §5

T3 sequence (Q06187 whole entry): as the sequence (Q06187 whole entry E41K) above, with K41E counted along it
T2 sequence (Q06187 whole entry P190K): as the sequence (Q06187 whole entry E41K) above, with K41E, P190K counted along it

As a reminder, the IC50 is the concentration needed to halve the response being measured. The Kd is the concentration at which binding is half-saturated. Read a low Kd as a tighter complex. In the case of `Cc1cnc(-c2ccc(-c3ccc(NC(=O)Nc4c(F)cc(F)cc4F)cc3F)c3c2C(=O)NC3)[nH]1` [Compound 7, 1-{3-fluoro-4-[7-(5-methyl-1H-imidazol-2-yl)-1-oxo-2,3-dihydro-1H-isoindol-4-yl]-phenyl}-3-(2,4,6-trifluorophenyl)urea], the concentration for half-maximal inhibition (IC50) is 0.43 nM in assay [1]; 6.74 nM in assay [5]; 14.5 nM in assay [6]; 6.59 nM in assay [7]; 8.42 nM in [8]; 28.7 nM in assay [9]. Also, the IC50 was 2970 nM in assay [10]; 20.5 nM in assay [11]; 816 nM in assay [12]; 280 nM in [13]; 4690 nM in assay [14]; 0.395 nM in assay [15]. The half-inhibitory concentration (IC50) in [16] was determined as 794 nM; in [17], 1590 nM; in [18], 0.045 nM; in [19] it was 0.238 nM. The “Inhibition of BTK pathway (Western blot)” value in assay [2] is given as “inhibits BTK pathway”. The “Apoptosis induction versus ibrutinib” value in assay [3] is given as “induced apoptosis more effectively than ibrutinib at all concentrations tested”. Besides, the Cell cycle progression result in [4] was “interferes with cell cycle progression”. The Kd is 1700 nM in assay [20], 7.9 nM in assay [21] and 6.4 nM in [22].
